Data from patent publication US20240384350A1, “METHODS OF TREATING CANCER WITH KINASE INHIBITORS” (BOARD OF REGENTS, THE UNIVERSITY OF TEXAS SYSTEM, priority 2021, published 2024).

Experiments:
Assay in all cases: Ba/F3 drug screening, Cell Titer Glo, IC50 Mut/WT
Type in all cases: cell-based
EGFR L858R S784F = target: T1, EGFR L858R S784F (Homo sapiens, UniProt P00533, L858R/S784F); conditions: Classical-Like, 72 hours
T1 construct: expressed in transfected cells; host or cells: Ba/F3 cells, retroviral pBabe-Puro vector (vector made by GeneScript from EGFR L858R)

EGFR R776H = target: T2, EGFR R776H (Homo sapiens, UniProt P00533, R776H); conditions: Ba/F3 cells, EGFR R776H (PACC), Mut/WT
T2 construct: host or cells: Ba/F3
Experimental: (§1) Data represent the ratio of the IC50 value for a given TKI for cells with a PACC EGFR mutation to the IC50 value for cells with wildtype EGFR.
(§2) Ba/F3 cell generation, drug screening, and IC50 approximations. Ba/F3 cells were obtained as a gift from Dr. Gordon Mills (MD Anderson Cancer Center), and maintained in RPMI (Sigma) containing 10% FBS, 1% penicillin/streptomycin, and 10 ng/ml recombinant mIL-3 (R&D Biosystems). To establish stable Ba/F3 cell lines, Ba/F3 cells were transduced with retroviruses containing mutant EGFR plasmids for 12-24 hours.
(§3) After 48-72 hours of transduction, 2 μg/ml puromycin (Invitrogen) was added to Ba/F3 cell lines in complete RPMI. To select for EGFR positive cell lines, cells were stained with PE-EGFR (Biolegend) and sorted by FACS. After sorting, EGFR positive cells were maintained in RPMI containing 10% FBS, 1% penicillin/streptomycin, and 1 ng/ml EGF to support cell viability. Drug screening was performed as previously described^41,42. Shortly, cells were plated in 384-well plates (Greiner Bio-One) at 2000-3000 cells per well in technical triplicate. Seven different concentrations of TKIs or DMSO vehicle were added to reach a final volume of 40 μL per well. After 72 hours, 11 μL of Cell Titer Glo (Promega) was added to each well. Plates were incubated for a minimum of 10 minutes, and bioluminescence was determined using a FLUOstar OPTIMA plate reader (BMG LABTECH). Raw bioluminescence values were normalized to DMSO control treated cells, and values were plotted in GraphPad Prism. […] Drug screens were performed in technical triplicate on each plate and either duplicate or triplicate biological replicates.

EGFR S720P = target: T3, EGFR S720P (Homo sapiens, UniProt P00533, S720P); conditions: Classical-Like, 72 hours
T3 construct: expressed in transfected cells; host or cells: Ba/F3 cells, retroviral pBabe-Puro vector (vector made by GeneScript from EGFR WT)
Experimental: (§4) Data represent the ratio of the IC50 value for a given TKI for cells with a classical-like EGFR mutation to the IC50 value for cells with wildtype EGFR.
as §2
(§5) After 48-72 hours of transduction, 2 μg/ml puromycin (Invitrogen) was added to Ba/F3 cell lines in complete RPMI. To select for EGFR positive cell lines, cells were stained with PE-EGFR (Biolegend) and sorted by FACS. After sorting, EGFR positive cells were maintained in RPMI containing 10% FBS, 1% penicillin/streptomycin, and 1 ng/ml EGF to support cell viability. […] Shortly, cells were plated in 384-well plates (Greiner Bio-One) at 2000-3000 cells per well in technical triplicate. Seven different concentrations of TKIs or DMSO vehicle were added to reach a final volume of 40 μL per well. After 72 hours, 11 μL of Cell Titer Glo (Promega) was added to each well. Plates were incubated for a minimum of 10 minutes, and bioluminescence was determined using a FLUOstar OPTIMA plate reader (BMG LABTECH). Raw bioluminescence values were normalized to DMSO control treated cells, and values were plotted in GraphPad Prism. […] Drug screens were performed in technical triplicate on each plate and either duplicate or triplicate biological replicates.

EGFR G719A T790M = target: T4, EGFR G719A T790M (Homo sapiens, UniProt P00533, G719A/T790M); conditions: T790M-like-3S, 72 hours
T4 construct: expressed in transfected cells; host or cells: Ba/F3
Experimental: (§6) Data represent the ratio of the IC50 value for a given TKI for cells with a T790M-like-3S EGFR mutation to the IC50 value for cells with wildtype EGFR.
as §2, §3

EGFR Ex19del G796S = target: T5, EGFR Ex19del G796S (Homo sapiens, UniProt P00533, DEL746-750/G796S); conditions: Ba/F3 cells, EGFR Ex19del G796S (PACC), Mut/WT
T5 construct: expressed in transfected cells; host or cells: Ba/F3

EGFR L747S = target: T6, EGFR L747S (Homo sapiens, UniProt P00533, L747S); conditions: Ba/F3 cells, EGFR L747S (PACC), Mut/WT
T6 construct: expressed in transfected cells; host or cells: Ba/F3
Experimental: as §1, §2, §3

EGFR L861Q = target: T7, EGFR L861Q (Homo sapiens, UniProt P00533, L861Q); conditions: Classical-Like, 72 hours
T7 construct: expressed in transfected cells; host or cells: Ba/F3 cells, retroviral pBabe-Puro vector

EGFR D770insNPG = target: T8, EGFR D770insNPG (Homo sapiens, UniProt P00533, INS770NPG); conditions: Ex20, 72 hours
T8 construct: expressed in transfected cells; host or cells: Ba/F3 cells, retroviral pBabe-Puro vector

EGFR Ex19del T790M C797S = target: T9, EGFR Ex19del T790M C797S (Homo sapiens, UniProt P00533, C797S/DEL746-750/T790M); conditions: T790M-like-3R, 72 hours
T9 construct: expressed in transfected cells; host or cells: Ba/F3
Experimental: Data represent the ratio of the IC50 value for a given TKI for cells with a T790M-like-3R EGFR mutation to the IC50 value for cells with wildtype EGFR.
as §2
After 48-72 hours of transduction, 2 μg/ml puromycin (Invitrogen) was added to Ba/F3 cell lines in complete RPMI. To select for EGFR positive cell lines, cells were stained with PE-EGFR (Biolegend) and sorted by FACS. After sorting, EGFR positive cells were maintained in RPMI containing 10% FBS, 1% penicillin/streptomycin, and 1 ng/ml EGF to support cell viability. […] Shortly, cells were plated in 384-well plates (Greiner Bio-One) at 2000-3000 cells per well in technical triplicate. Seven different concentrations of TKIs or DMSO vehicle were added to reach a final volume of 40 μL per well. After 72 hours, 11 μL of Cell Titer Glo (Promega) was added to each well. Plates were incubated for a minimum of 10 minutes, and bioluminescence was determined using a FLUOstar OPTIMA plate reader (BMG LABTECH). Raw bioluminescence values were normalized to DMSO control treated cells, and values were plotted in GraphPad Prism. […] Drug screens were performed in technical triplicate on each plate and either duplicate or triplicate biological replicates. […] Statistical differences between groups were determined by ANOVA as described in the figure legends.

EGFR L833F = target: T10, EGFR L833F (Homo sapiens, UniProt P00533, L833F); conditions: Classical-Like, 72 hours
T10 construct: expressed in transfected cells; host or cells: Ba/F3 cells, retroviral pBabe-Puro vector

EGFR I740dupIPVAK = conditions: Ba/F3 cells, EGFR I740dupIPVAK (PACC), Mut/WT
Experimental: as §1, §2, §3

EGFR K754E = target: T11, EGFR K754E (Homo sapiens, UniProt P00533, K754E); conditions: Classical-Like, 72 hours
T11 construct: expressed in transfected cells; host or cells: Ba/F3 cells, retroviral pBabe-Puro vector

EGFR E709K L858R = target: T12, EGFR E709K L858R (Homo sapiens, UniProt P00533, E709K/L858R); conditions: Classical-Like, 72 hours
T12 construct: expressed in transfected cells; host or cells: Ba/F3 cells, retroviral pBabe-Puro vector
Experimental: as §4, §2, §5

EGFR G719S = target: T13, EGFR G719S (Homo sapiens, UniProt P00533, G719S); conditions: Ba/F3 cells, EGFR G719S (PACC), Mut/WT
T13 construct: expressed in transfected cells; host or cells: Ba/F3

EGFR L858R T790M V843I = target: T14, EGFR L858R T790M V843I (Homo sapiens, UniProt P00533, L858R/T790M/V843I); conditions: T790M-like-3S, 72 hours
T14 construct: expressed in transfected cells; host or cells: Ba/F3

EGFR S768dupSVD V769M = target: T15, EGFR S768dupSVD V769M (Homo sapiens, UniProt P00533, INS768MDS/V769M); conditions: Ex20, 72 hours
T15 construct: expressed in transfected cells; host or cells: Ba/F3 cells, retroviral pBabe-Puro vector (vector made by GeneScript from EGFR S768dupSVD, c.2305G > A)

EGFR V769L = target: T16, EGFR V769L (Homo sapiens, UniProt P00533, V769L); conditions: Ba/F3 cells, EGFR V769L (PACC), Mut/WT
T16 construct: expressed in transfected cells; host or cells: Ba/F3

EGFR N771dupN G724S = target: T17, EGFR N771dupN G724S (Homo sapiens, UniProt P00533, DUP771-771/G724S); conditions: Ex20, 72 hours
T17 construct: expressed in transfected cells; host or cells: Ba/F3 cells, retroviral pBabe-Puro vector (vector made by GeneScript from EGFR G724S, c.2313_2314insAAC)
Experimental: Data represent the ratio of the IC50 value for a given TKI for cells with an ex20ins EGFR mutation to the IC50 value for cells with wildtype EGFR.
as §2
(§7) After 48-72 hours of transduction, 2 μg/ml puromycin (Invitrogen) was added to Ba/F3 cell lines in complete RPMI. To select for EGFR positive cell lines, cells were stained with PE-EGFR (Biolegend) and sorted by FACS. After sorting, EGFR positive cells were maintained in RPMI containing 10% FBS, 1% penicillin/streptomycin, and 1 ng/ml EGF to support cell viability. Drug screening was performed as previously described^41,42. Shortly, cells were plated in 384-well plates (Greiner Bio-One) at 2000-3000 cells per well in technical triplicate. Seven different concentrations of TKIs or DMSO vehicle were added to reach a final volume of 40 μL per well. After 72 hours, 11 μL of Cell Titer Glo (Promega) was added to each well. Plates were incubated for a minimum of 10 minutes, and bioluminescence was determined using a FLUOstar OPTIMA plate reader (BMG LABTECH). Raw bioluminescence values were normalized to DMSO control treated cells, and values were plotted in GraphPad Prism. […] Drug screens were performed in technical triplicate on each plate and either duplicate or triplicate biological replicates. […] Statistical differences between groups were determined by ANOVA as described in the figure legends.

EGFR L747P = target: T18, EGFR L747P (Homo sapiens, UniProt P00533, L747P); conditions: Ba/F3 cells, EGFR L747P (PACC), Mut/WT
T18 construct: expressed in transfected cells; host or cells: Ba/F3
Experimental: as §1, §2, §7

EGFR G719S T790M = target: T19, EGFR G719S T790M (Homo sapiens, UniProt P00533, G719S/T790M); conditions: T790M-like-3S, 72 hours
T19 construct: expressed in transfected cells; host or cells: Ba/F3

EGFR S768I = target: T20, EGFR S768I (Homo sapiens, UniProt P00533, S768I); conditions: Ba/F3 cells, EGFR S768I (PACC), Mut/WT
T20 construct: expressed in transfected cells; host or cells: Ba/F3

EGFR G724S = target: T21, EGFR G724S (Homo sapiens, UniProt P00533, G724S); conditions: Ba/F3 cells, EGFR G724S (PACC), Mut/WT
T21 construct: expressed in transfected cells; host or cells: Ba/F3
Experimental: as §1, §2, §3

EGFR E709A G719S = target: T22, EGFR E709A G719S (Homo sapiens, UniProt P00533, E709A/G719S); conditions: Ba/F3 cells, EGFR E709A G719S (PACC), Mut/WT
T22 construct: expressed in transfected cells; host or cells: Ba/F3

EGFR Ex19del T790M L718V = target: T23, EGFR Ex19del T790M L718V (Homo sapiens, UniProt P00533, DEL746-750/L718V/T790M); conditions: T790M-like-3S, 72 hours
T23 construct: expressed in transfected cells; host or cells: Ba/F3
Experimental: as §6, §2, §3

| SMILES | ratio of IC50 for cells with mutant EGFR to IC50 for cells with wildtype EGFR (Mut/WT) (EGFR L858R S784F) | ratio of the IC50 value for cells with a PACC EGFR mutation to the IC50 value for cells with wildtype EGFR (EGFR R776H) | ratio of IC50 for cells with mutant EGFR to IC50 for cells with wildtype EGFR (Mut/WT) (EGFR S720P) | ratio of IC50 for cells with mutant EGFR to IC50 for cells with wildtype EGFR (Mut/WT) (EGFR G719A T790M) | ratio of the IC50 value for cells with a PACC EGFR mutation to the IC50 value for cells with wildtype EGFR (EGFR Ex19del G796S) | ratio of the IC50 value for cells with a PACC EGFR mutation to the IC50 value for cells with wildtype EGFR (EGFR L747S) | ratio of IC50 for cells with mutant EGFR to IC50 for cells with wildtype EGFR (Mut/WT) (EGFR L861Q) | ratio of IC50 for cells with mutant EGFR to IC50 for cells with wildtype EGFR (Mut/WT) (EGFR D770insNPG) | ratio of IC50 for cells with mutant EGFR to IC50 for cells with wildtype EGFR (Mut/WT) (EGFR Ex19del T790M C797S) | ratio of IC50 for cells with mutant EGFR to IC50 for cells with wildtype EGFR (Mut/WT) (EGFR L833F) | ratio of the IC50 value for cells with a PACC EGFR mutation to the IC50 value for cells with wildtype EGFR (EGFR I740dupIPVAK) | ratio of IC50 for cells with mutant EGFR to IC50 for cells with wildtype EGFR (Mut/WT) (EGFR K754E) | ratio of IC50 for cells with mutant EGFR to IC50 for cells with wildtype EGFR (Mut/WT) (EGFR E709K L858R) | ratio of the IC50 value for cells with a PACC EGFR mutation to the IC50 value for cells with wildtype EGFR (EGFR G719S) | ratio of IC50 for cells with mutant EGFR to IC50 for cells with wildtype EGFR (Mut/WT) (EGFR L858R T790M V843I) | ratio of IC50 for cells with mutant EGFR to IC50 for cells with wildtype EGFR (Mut/WT) (EGFR S768dupSVD V769M) | ratio of the IC50 value for cells with a PACC EGFR mutation to the IC50 value for cells with wildtype EGFR (EGFR V769L) | ratio of IC50 for cells with mutant EGFR to IC50 for cells with wildtype EGFR (Mut/WT) (EGFR N771dupN G724S) | ratio of the IC50 value for cells with a PACC EGFR mutation to the IC50 value for cells with wildtype EGFR (EGFR L747P) | ratio of IC50 for cells with mutant EGFR to IC50 for cells with wildtype EGFR (Mut/WT) (EGFR G719S T790M) | also measured |
| --- | --- | --- | --- | --- | --- | --- | --- | --- | --- | --- | --- | --- | --- | --- | --- | --- | --- | --- | --- | --- | --- |
| C=CC(=O)N1CC[C@@H](Oc2nc(Nc3ccc(N4CCC(N5CCN(C)CC5)CC4)cc3)c(C(N)=O)nc2CC)C1 [Naquotinib] | 0.1921 | 0.5095 | 0.03397 | 0.08702 | 1.137 | 0.8911 | 0.1616 | 1.296 | 14.64 | 0.03054 | 0.5025 | 0.04901 | 0.0818 | 0.2727 | 0.01519 | 1.96 | 1.624 | 2.781 | 3.507 | 0.1409 | ratio of the IC50 value for cells with a PACC EGFR mutation to the IC50 value for cells with wildtype EGFR (EGFR S768I): 1.09; ratio of the IC50 value for cells with a PACC EGFR mutation to the IC50 value for cells with wildtype EGFR (EGFR G724S): 1.174; ratio of the IC50 value for cells with a PACC EGFR mutation to the IC50 value for cells with wildtype EGFR (EGFR E709A G719S): 0.3574; ratio of IC50 for cells with mutant EGFR to IC50 for cells with wildtype EGFR (Mut/WT) (EGFR Ex19del T790M L718V): 0.02994 |
| Cc1cc(C(=O)Nc2nc3cccc(Cl)c3n2[C@@H]2CCCCN(C(=O)/C=C/CN(C)C)C2)ccn1 [Nazartinib] | 0.03577 | 0.03601 | 0.005619 | 0.02653 | 0.6604 | 0.06302 | 0.03861 | 0.529 | 5.557 | 0.0584 | 0.1352 | 0.04749 | 0.01992 | 0.08165 | 0.02498 | 0.3262 | 0.1771 | 0.3384 | 0.2221 | 0.04811 | ratio of the IC50 value for cells with a PACC EGFR mutation to the IC50 value for cells with wildtype EGFR (EGFR S768I): 0.5273; ratio of the IC50 value for cells with a PACC EGFR mutation to the IC50 value for cells with wildtype EGFR (EGFR G724S): 0.869; ratio of the IC50 value for cells with a PACC EGFR mutation to the IC50 value for cells with wildtype EGFR (EGFR E709A G719S): 0.09237; ratio of IC50 for cells with mutant EGFR to IC50 for cells with wildtype EGFR (Mut/WT) (EGFR Ex19del T790M L718V): 0.2594 |
| C=CC(=O)Nc1cccc(Oc2nc(Nc3ccc(N4CCN(C)CC4)cc3)nc3ccsc23)c1 [Olmutinib] | 0.04569 | 0.1146 | 0.003331 | 0.0114 | 0.8234 | 0.06291 | 0.05048 | 0.31 | 1.926 | 0.1289 | 0.1715 | 0.008838 | 0.01609 | 0.214 | 0.000771 | 0.5379 | 0.3121 | 0.4165 | 0.3924 | 0.02453 | ratio of the IC50 value for cells with a PACC EGFR mutation to the IC50 value for cells with wildtype EGFR (EGFR S768I): 0.007216; ratio of the IC50 value for cells with a PACC EGFR mutation to the IC50 value for cells with wildtype EGFR (EGFR G724S): 0.1827; ratio of the IC50 value for cells with a PACC EGFR mutation to the IC50 value for cells with wildtype EGFR (EGFR E709A G719S): 0.1443; ratio of IC50 for cells with mutant EGFR to IC50 for cells with wildtype EGFR (Mut/WT) (EGFR Ex19del T790M L718V): 0.02165 |
